Measurements: patent publication US9023789B2, “Amylin analogs and pharmaceutical compositions thereof” (Novo Nordisk A/S, priority 2012, dated 2015)
Numbered stars: 1 amine (or outer) side, 2 acyl side, 3 side chain; on linkers, the order of the positions; unused ones are H or OH. Bridge positions count the residues as written; N and C are the ends. Side chains are listed from the residue outwards. Peptide text beside a SMILES is read from it. * marks the point of attachment. C20 diacid = O=C(O)CCCCCCCCCCCCCCCCCCC(=O)*; γGlu = O=C(O)[C@H](CCC(=O)[*:2])N[*:1]; AEEA = NCCOCCOCC(=O)O

Experiments:
[1] = ASSAY (III) ThT fibrillation assay for physical stability; assay type: physicochemical
Summary of the method: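 Formulations with 1 μM ThT, pH adjusted as required, incubated at 37 °C with 960 rpm orbital shaking; fluorescence (ex 444/em 485 nm) read every 20 min. Fibrillation reported as mean ThT fluorescence ± SD of 4–8 replicates at time points; polypeptide concentration measured by reverse-phase HPLC before and after, post-centrifugation.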

[2] = biological target: T1, rat amylin receptor (rat calcitonin receptor + rat RAMP 3) (Rattus norvegicus, UniProt P32214+Q9JJ73); test: ASSAY (VI) binding to the rat amylin receptor; settings: for IC50: binding to rat amylin receptor, read-out: rAmylin-R bind IC50
T1 construct: expressed in transfected cells; host or cells: BHK tk'ts 13 (transient, FuGENE 6), membranes
T1 sequence (P32214 25-479 isoform P32214-2 limits assumed): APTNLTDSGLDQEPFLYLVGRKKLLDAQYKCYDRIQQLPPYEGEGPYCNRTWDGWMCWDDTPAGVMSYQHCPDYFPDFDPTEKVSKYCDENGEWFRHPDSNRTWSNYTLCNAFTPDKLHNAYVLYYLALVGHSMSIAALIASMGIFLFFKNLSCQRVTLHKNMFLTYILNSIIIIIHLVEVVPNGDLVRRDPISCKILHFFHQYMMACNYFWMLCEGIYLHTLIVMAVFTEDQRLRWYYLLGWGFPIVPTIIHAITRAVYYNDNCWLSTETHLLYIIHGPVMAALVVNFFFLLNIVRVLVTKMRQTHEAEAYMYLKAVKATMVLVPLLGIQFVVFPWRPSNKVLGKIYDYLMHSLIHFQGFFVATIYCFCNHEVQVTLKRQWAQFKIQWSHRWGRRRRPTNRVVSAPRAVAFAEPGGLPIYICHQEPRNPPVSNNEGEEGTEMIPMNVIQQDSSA
T1 sequence (Q9JJ73 23-147 partner): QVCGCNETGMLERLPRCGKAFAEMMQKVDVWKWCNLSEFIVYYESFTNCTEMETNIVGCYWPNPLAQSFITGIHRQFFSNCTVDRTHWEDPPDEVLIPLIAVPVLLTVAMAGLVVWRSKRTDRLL
Summary of the method: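 This assay measured binding to the rat amylin receptor. BHK tk′ts 13 cells were transiently transfected with the rat calcitonin receptor using FuGENE® 6 (Roche), following the manufacturer's recommendations. About 48 hours after transfection, the cells were harvested and membranes were prepared from them for the binding determination.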

[3] = Table 7, rat binding selectivity, rCTR IC50 / rAmylin-R IC50
[4] = Table 7a (preferred compounds), rat binding selectivity, rCTR IC50 / rAmylin-R IC50
[5] = ratio of rCTR bind IC50 to rAmylin-R bind IC50

Row | Structure (SMILES) | ThT pH 4.0 lag time (h) [1] [h] | IC50 ([2]; Table 7) [pM] | Ratio rCT/rAmylin binding [2, 3] | Ratio rCT/rAmylin binding [2, 4] | Ratio rCT/rAmylin binding [2, 5]
1 | CC[C@H](C)[C@H](NC(=O)[C@H](C)NC(=O)CNC(=O)[C@H](Cc1ccccc1)NC(=O)[C@H](CC(N)=O)NC(=O)[C@@H]1CCCN1C(=O)[C@H](CO)NC(=O)[C@H](CO)NC(=O)[C@H](Cc1c[nH]cn1)NC(=O)[C@H](CCCNC(=N)N)NC(=O)[C@H](CC(C)C)NC(=O)[C@H](Cc1ccccc1)NC(=O)[C@H](CC(N)=O)NC(=O)[C@H](C)NC(=O)[C@H](CC(C)C)NC(=O)[C@H](CCCNC(=N)N)NC(=O)[C@H](CCC(N)=O)NC(=O)[C@@H](NC(=O)[C@H](C)NC(=O)[C@@H]1CSSC[C@H](NC(=O)[C@H](CCCNC(=N)N)NC(=O)[C@@H](N)CCCCNC(=O)COCCOCCNC(=O)CC[C@H](NC(=O)CCCCCCCCCCCCCCCCCCC(=O)O)C(=O)O)C(=O)N[C@@H](CC(N)=O)C(=O)N[C@@H]([C@@H](C)O)C(=O)N[C@@H](C)C(=O)N[C@@H]([C@@H](C)O)C(=O)N1)[C@@H](C)O)C(=O)N1CCC[C@H]1C(=O)N[C@@H](CO)C(=O)N[C@@H](CO)C(=O)N[C@H](C(=O)N[C@@H](CC(N)=O)C(=O)N[C@H](C(=O)NCC(=O)N[C@@H](CO)C(=O)N[C@@H](Cc1c[nH]cn1)C(=O)N[C@H](C(=O)N[C@@H](Cc1ccc(O)cc1)C(N)=O)[C@@H](C)O)C(C)C)[C@@H](C)O [Example 45] (H-K([AEEA-γGlu-C20 diacid])RCNTATCATQRLANFLRHSSPNFGAIPSSTNVGSHTY-NH2; disulfide 3-8 (inferred)) | 45 | 623 | 67.1 | 67.1 | 67.1
2 | CC[C@H](C)[C@H](NC(=O)[C@H](C)NC(=O)CNC(=O)[C@H](Cc1ccccc1)NC(=O)[C@H](CC(N)=O)NC(=O)[C@@H]1CCCN1C(=O)[C@H](CO)NC(=O)[C@H](CO)NC(=O)[C@H](Cc1c[nH]cn1)NC(=O)[C@H](CCCNC(=N)N)NC(=O)[C@H](CC(C)C)NC(=O)[C@H](Cc1ccccc1)NC(=O)[C@H](CC(N)=O)NC(=O)[C@H](C)NC(=O)[C@H](CC(C)C)NC(=O)[C@H](CCCNC(=N)N)NC(=O)[C@H](CCC(N)=O)NC(=O)[C@@H](NC(=O)[C@H](C)NC(=O)[C@@H]1CSSC[C@H](NC(=O)[C@H](CCCNC(=N)N)NC(=O)CNC(=O)CC[C@H](NC(=O)CCCCCCCCCCCCCCCCCCC(=O)O)C(=O)O)C(=O)N[C@@H](CC(N)=O)C(=O)N[C@@H]([C@@H](C)O)C(=O)N[C@@H](C)C(=O)N[C@@H]([C@@H](C)O)C(=O)N1)[C@@H](C)O)C(=O)N1CCC[C@H]1C(=O)N[C@@H](CO)C(=O)N[C@@H](CO)C(=O)N[C@H](C(=O)N[C@@H](CC(N)=O)C(=O)N[C@H](C(=O)NCC(=O)N[C@@H](CO)C(=O)N[C@@H](Cc1c[nH]cn1)C(=O)N[C@H](C(=O)N[C@@H](Cc1ccc(O)cc1)C(N)=O)[C@@H](C)O)C(C)C)[C@@H](C)O [Example 47] ({C20 diacid-γGlu}-GRCNTATCATQRLANFLRHSSPNFGAIPSSTNVGSHTY-NH2; disulfide 3-8) | 45 | 203 | 84.3 | 84.3 | 84.3
3 | CC[C@H](C)[C@H](NC(=O)[C@H](C)NC(=O)CNC(=O)[C@H](Cc1ccccc1)NC(=O)[C@H](CC(N)=O)NC(=O)[C@@H]1CCCN1C(=O)[C@H](CO)NC(=O)[C@H](CO)NC(=O)[C@H](Cc1c[nH]cn1)NC(=O)[C@H](CCCNC(=N)N)NC(=O)[C@H](CC(C)C)NC(=O)[C@H](Cc1ccccc1)NC(=O)[C@H](CCC(=O)O)NC(=O)[C@H](C)NC(=O)[C@H](CC(C)C)NC(=O)[C@H](CCCNC(=N)N)NC(=O)[C@H](CCC(N)=O)NC(=O)[C@@H](NC(=O)[C@H](C)NC(=O)[C@@H]1CSSC[C@H](NC(=O)[C@@H](N)CCCCNC(=O)CC[C@H](NC(=O)CCCCCCCCCCCCCCCCCCC(=O)O)C(=O)O)C(=O)N[C@@H](CC(N)=O)C(=O)N[C@@H]([C@@H](C)O)C(=O)N[C@@H](C)C(=O)N[C@@H]([C@@H](C)O)C(=O)N1)[C@@H](C)O)C(=O)N1CCC[C@H]1C(=O)N[C@@H](CO)C(=O)N[C@@H](CO)C(=O)N[C@H](C(=O)N[C@@H](CC(N)=O)C(=O)N[C@H](C(=O)NCC(=O)N[C@@H](CO)C(=O)N[C@@H](CCCNC(=N)N)C(=O)N[C@H](C(=O)N[C@@H](Cc1ccc(O)cc1)C(N)=O)[C@@H](C)O)C(C)C)[C@@H](C)O [Example 51] (H-K([γGlu-C20 diacid])CNTATCATQRLAEFLRHSSPNFGAIPSSTNVGSRTY-NH2; disulfide 2-7 (inferred); N-terminus assumed) | 7 | 523 | 118.6 | 118.6 | 118.6
4 | CC[C@H](C)[C@H](NC(=O)[C@H](C)NC(=O)CNC(=O)[C@H](Cc1ccccc1)NC(=O)[C@H](CC(N)=O)NC(=O)[C@@H]1CCCN1C(=O)[C@H](CO)NC(=O)[C@H](CO)NC(=O)[C@H](Cc1c[nH]cn1)NC(=O)[C@H](CCCNC(=N)N)NC(=O)[C@H](CC(C)C)NC(=O)[C@H](Cc1ccccc1)NC(=O)[C@H](CC(=O)O)NC(=O)[C@H](C)NC(=O)[C@H](CC(C)C)NC(=O)[C@H](CCCNC(=N)N)NC(=O)[C@H](CCC(N)=O)NC(=O)[C@@H](NC(=O)[C@H](C)NC(=O)[C@@H]1CSSC[C@H](NC(=O)[C@@H](N)CCCCNC(=O)CC[C@H](NC(=O)CC[C@H](NC(=O)CCCCCCCCCCCCCCCCCCC(=O)O)C(=O)O)C(=O)O)C(=O)N[C@@H](CC(N)=O)C(=O)N[C@@H]([C@@H](C)O)C(=O)N[C@@H](C)C(=O)N[C@@H]([C@@H](C)O)C(=O)N1)[C@@H](C)O)C(=O)N1CCC[C@H]1C(=O)N[C@@H](CO)C(=O)N[C@@H](CO)C(=O)N[C@H](C(=O)N[C@@H](CC(N)=O)C(=O)N[C@H](C(=O)NCC(=O)N[C@@H](CO)C(=O)N[C@@H](CCCNC(=N)N)C(=O)N[C@H](C(=O)N[C@@H](Cc1ccc(O)cc1)C(N)=O)[C@@H](C)O)C(C)C)[C@@H](C)O [Example 52, N-ε-1-{(S)-4-carboxy-4-[(S)-4-carboxy-4-(19-carboxynonadecanoylamino)butyrylamino]butyryl}-[Asp14,Arg17,Pro21,Pro27,Arg35]-human amylin] | 41 | 335 | 476.7 | 476.7 | 476.7
